In patent US9113629B2, “4-amino-6-(4-substituted-phenyl)-picolinates and 6-amino-2-(4-substituted-phenyl)-pyrimidine-4-carboxylates and their use as herbicides” (DOW AGROSCIENCES LLC, priority 2013, dated 2015):
Read-outs that look alike come from different tables or passages of the source.

Experiments:
[1] = tested on: Key Grass and Sedge Weeds as well as Grass Crops; assay: Post-emergent Test II herbicidal activity (Table 6); format: in vivo; details: post-emergence, 336 h; for pest or weed control at 70 g/ha: 70 g ai/ha; for pest or weed control at 140 g/ha: 140 g ai/ha
Method in brief: (§1)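 Visual injury ratings (0 = no injury, 100 = complete kill) were taken 14 d after treatment, relative to untreated plants. Seedlings at the first–second true leaf stage received overhead spray at 187 L/ha; the highest rate was serially diluted to ½×, ¼×, ⅛× and 1/16×.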

[2] = tested on: Key Broadleaf Weed and Crop Species; assay: Post-emergent Test II herbicidal activity (Table 5); format: in vivo; details: post-emergence, 336 h, 14 days after application; for pest or weed control at 70 g/ha: application rate 70 g ai/ha; for pest or weed control at 140 g/ha: application rate 140 g ai/ha
Method in brief: as §1

[3] = CYPES: yellow nutsedge (Cyperus esculentus), read-out: Visual Growth Reduction (%) 14 Days After Application, CYPES
[4] = DIGSA: crabgrass (Digitaria sanguinalis), read-out: Visual Growth Reduction (%) 14 Days After Application, DIGSA
[5] = ECHCG: barnyardgrass (Echinochloa crus-galli), read-out: Visual Growth Reduction (%) 14 Days After Application, ECHCG
[6] = ORYSA: rice (Oryza sativa), crop, read-out: Visual Growth Reduction (%) 14 Days After Application, ORYSA
[7] = SETFA: giant foxtail (Setaria faberi), read-out: Visual Growth Reduction (%) 14 Days After Application, SETFA
[8] = SORVU: grain sorghum (Sorghum vulgare), read-out: Visual Growth Reduction (%) 14 Days After Application, SORVU
[9] = TRZSS (wheat, Triticum aestivum), crop, read-out: Visual Growth Reduction (%) 14 Days After Application, TRZSS
[10] = ZEAMX: maize, corn (Zea mays), crop, read-out: Visual Growth Reduction (%) 14 Days After Application, ZEAMX
[11] = ABUTH: velvetleaf (Abutilon theophrasti), read-out: Visual Growth Reduction (%) 14 Days After Application, ABUTH
[12] = AMARE: redroot pigweed (Amaranthus retroflexus), read-out: Visual Growth Reduction (%) 14 Days After Application, AMARE
[13] = BRSNN: oilseed-rape, canola (Brassica napus), read-out: Visual Growth Reduction (%) 14 Days After Application, BRSNN
[14] = CHEAL: lambsquarters (Chenopodium album), read-out: Visual Growth Reduction (%) 14 Days After Application, CHEAL
[15] = EPHHL: wild poinsettia (Euphorbia heterophylla), read-out: Visual Growth Reduction (%) 14 Days After Application, EPHHL
[16] = HELAN: sunflower (Helianthus annuus), read-out: Visual Growth Reduction (%) 14 Days After Application, HELAN
[17] = VIOTR: wild pansy (Viola tricolor), read-out: Visual Growth Reduction (%) 14 Days After Application, VIOTR

SMILES | pest or weed control at 70 g/ha [1, 3] [%] | pest or weed control at 140 g/ha [1, 3] [%] | pest or weed control at 70 g/ha [1, 4] [%] | pest or weed control at 140 g/ha [1, 4] [%] | pest or weed control at 70 g/ha [1, 5] [%] | pest or weed control at 140 g/ha [1, 5] [%] | pest or weed control at 70 g/ha [1, 6] [%] | pest or weed control at 140 g/ha [1, 6] [%] | pest or weed control at 70 g/ha [1, 7] [%] | pest or weed control at 140 g/ha [1, 7] [%] | pest or weed control at 70 g/ha [1, 8] [%] | pest or weed control at 140 g/ha [1, 8] [%] | pest or weed control at 70 g/ha [1, 9] [%] | pest or weed control at 140 g/ha [1, 9] [%] | pest or weed control at 70 g/ha [1, 10] [%] | pest or weed control at 140 g/ha [1, 10] [%] | pest or weed control at 70 g/ha [2, 11] [%] | pest or weed control at 140 g/ha [2, 11] [%] | pest or weed control at 70 g/ha [2, 12] [%] | pest or weed control at 140 g/ha [2, 12] [%] | also measured
Nc1cc(-c2ccc(I)cc2)nc(C(=O)O)c1Cl [Compound 4] | 45 to 59 | 95 to 100 | 60 to 74 | 75 to 84 | 75 to 84 | 85 to 94 | 0 to 29 | 0 to 29 | 60 to 74 | 60 to 74 | 75 to 84 | 75 to 84 | 75 to 84 | 75 to 84 | 0 to 29 | 0 to 29 | 95 to 100 | 95 to 100 | 85 to 94 | 85 to 94 | pest or weed control at 70 g/ha [2, 13]: 95 to 100%; pest or weed control at 140 g/ha [2, 13]: 95 to 100%; pest or weed control at 70 g/ha [2, 14]: 95 to 100%; pest or weed control at 140 g/ha [2, 14]: 95 to 100%; pest or weed control at 70 g/ha [2, 15]: 95 to 100%; pest or weed control at 140 g/ha [2, 15]: 95 to 100%; pest or weed control at 70 g/ha [2, 16]: 75 to 84%; pest or weed control at 140 g/ha [2, 16]: 85 to 94%; pest or weed control at 70 g/ha [2, 17]: 0 to 29%; pest or weed control at 140 g/ha [2, 17]: 0 to 29%
COC(=O)c1nc(-c2ccc(I)cc2)nc(N)c1OC [Compound 18] | 95 to 100 | 95 to 100 | 0 to 29 | 30 to 44 | 0 to 29 | 45 to 59 | 0 to 29 | 0 to 29 | 0 to 29 | 0 to 29 | 30 to 44 | 0 to 29 | 30 to 44 | 30 to 44 | 95 to 100 | 95 to 100 | 75 to 84 | 75 to 84 | 0 to 29 | 0 to 29 | pest or weed control at 70 g/ha [2, 13]: 75 to 84%; pest or weed control at 140 g/ha [2, 13]: 95 to 100%; pest or weed control at 70 g/ha [2, 14]: 85 to 94%; pest or weed control at 140 g/ha [2, 14]: 95 to 100%; pest or weed control at 70 g/ha [2, 15]: 95 to 100%; pest or weed control at 140 g/ha [2, 15]: 95 to 100%; pest or weed control at 70 g/ha [2, 16]: 95 to 100%; pest or weed control at 140 g/ha [2, 16]: 95 to 100%; pest or weed control at 70 g/ha [2, 17]: 0 to 29%; pest or weed control at 140 g/ha [2, 17]: 45 to 59%
